Laboratory results as given in US9980943B2, “Methods of treating muscular dystrophy” (BOARD OF REGENTS OF THE NEVADA SYSTEM OF HIGHER EDUCATION, …, priority 2013, dated 2018).

What was measured:
Format in all cases: cell-based, mouse
[1] = tested on: β-galactosidase in CMV-LacZ C2C12 myoblasts; test: CMV-LacZ secondary screen in C2C12 myoblasts (β-Gal stabilizing assay); settings: CMV-LacZ C2C12 myoblasts
Summary of the method: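 A secondary screen identifies compounds that stabilize β-gal independently of the native promoter, using CMV-LacZ C2C12 cells. Curves span 0.5–40 μM at six levels, in duplicate.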

[2] = tested on: α7 integrin (LacZ reporter in α7βgal+/− myoblasts); test: Myoblast α7+/LacZ integrin FDG assay (Burkin assay in myoblasts, 96-well); settings: α7+/LacZ myoblasts, 96-well
[3] = tested on: α7 integrin (LacZ reporter in α7+/LacZ myotubes); test: Myotube α7 integrin FDG assay (Burkin assay in myotubes, 96-well); settings: myotubes
[4] = tested on: β-galactosidase in CMV-LacZ C2C12 myotubes; test: CMV-LacZ secondary screen in C2C12 myotubes (β-Gal stabilizing assay); settings: C2C12 CMV-LacZ myotubes, fold relative to DMSO
Summary of the method: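 β-Gal level was the read-out, measured in a clonal C2C12 line expressing LacZ from a CMV promoter. Dose-response curves used six concentrations, 0.5 μM up to 40 μM, with duplicate points.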

SMILES | CMV-LACZ in Myoblasts (β-galactosidase activity relative to DMSO) ([1]; 0.5 uM) | CMV-LACZ in Myoblasts (β-galactosidase activity relative to DMSO) ([1]; 1 uM) | CMV-LACZ in Myoblasts (β-galactosidase activity relative to DMSO) ([1]; 5 uM) | CMV-LACZ in Myoblasts (β-galactosidase activity relative to DMSO) ([1]; 10 uM) | CMV-LACZ in Myoblasts (β-galactosidase activity relative to DMSO) ([1]; 20 uM) | CMV-LACZ in Myoblasts (β-galactosidase activity relative to DMSO) ([1]; 40 uM) | Burkin Assay in Myoblasts, signal relative to DMSO ([2]; 0.5 uM) | Burkin Assay in Myoblasts, signal relative to DMSO ([2]; 1 uM) | Burkin Assay in Myoblasts, signal relative to DMSO ([2]; 5 uM) | Burkin Assay in Myoblasts, signal relative to DMSO ([2]; 10 uM) | Burkin Assay in Myoblasts, signal relative to DMSO ([2]; 20 uM) | Burkin Assay in Myoblasts, signal relative to DMSO ([2]; 40 uM) | Burkin Assay in Myotubes, α7 integrin LacZ reporter signal relative to DMSO ([3]; 0.5 uM) | Burkin Assay in Myotubes, α7 integrin LacZ reporter signal relative to DMSO ([3]; 1 uM) | Burkin Assay in Myotubes, α7 integrin LacZ reporter signal relative to DMSO ([3]; 5 uM) | Burkin Assay in Myotubes, α7 integrin LacZ reporter signal relative to DMSO ([3]; 10 uM) | Burkin Assay in Myotubes, α7 integrin LacZ reporter signal relative to DMSO ([3]; 20 uM) | Burkin Assay in Myotubes, α7 integrin LacZ reporter signal relative to DMSO ([3]; 40 uM) | CMV-LACZ in Myotubes, signal relative to DMSO ([4]; 0.5 uM) | CMV-LACZ in Myotubes, signal relative to DMSO ([4]; 1 uM) | other results
COc1cc(/C=C/CN2CCN(Cc3ccc(C)o3)C(CCO)C2)ccc1O (stereo not drawn) [MLS000693704-01] | 0.8989 | 1.1157 | 0.9522 | 0.9977 | 0.7996 | 1.0567 | 1.428 | 1.153 | 1.1427 | 0.9418 | 0.8473 | 0.8019 | 0.9315 | 1.0787 | 1.003 | 0.923 | 0.9587 | 0.8263 | 0.8571 | 0.8695 | CMV-LACZ in Myotubes, signal relative to DMSO ([4]; 5 uM): 1.1170; CMV-LACZ in Myotubes, signal relative to DMSO ([4]; 10 uM): 1.0812; CMV-LACZ in Myotubes, signal relative to DMSO ([4]; 20 uM): 1.1647; CMV-LACZ in Myotubes, signal relative to DMSO ([4]; 40 uM): 1.0600
CCOc1cc(C)c(S(=O)(=O)N2CCCCC2)cc1C [MLS000693795-01] | 0.9100 | 1.1104 | 0.9554 | 0.9207 | 0.8526 | 0.8730 | 1.1137 | 1.242 | 1.02 | 0.9728 | 1.187 | 1.24 | 0.8397 | 0.9171 | 0.9381 | 0.9384 | 1.002 | 0.9513 | 0.9771 | 1.0314 | CMV-LACZ in Myotubes, signal relative to DMSO ([4]; 5 uM): 1.1780; CMV-LACZ in Myotubes, signal relative to DMSO ([4]; 10 uM): 1.0774; CMV-LACZ in Myotubes, signal relative to DMSO ([4]; 20 uM): 1.0453; CMV-LACZ in Myotubes, signal relative to DMSO ([4]; 40 uM): 1.0716
Cc1ccsc1-c1n[nH]c(=S)n1C1CCCCC1 [MLS000698617-01] | 1.3409 | 0.9852 | 1.1399 | 1.0603 | 1.1670 | 1.0356 | 1.008 | 1.003 | 1.06 | 0.9317 | 0.8462 | 0.8966 | 1.197 | 1.075 | 1.139 | 0.945 | 1.092 | 0.7963 | 1.1221 | 1.0842 | CMV-LACZ in Myotubes, signal relative to DMSO ([4]; 5 uM): 0.9014; CMV-LACZ in Myotubes, signal relative to DMSO ([4]; 10 uM): 0.9614; CMV-LACZ in Myotubes, signal relative to DMSO ([4]; 20 uM): 1.0011; CMV-LACZ in Myotubes, signal relative to DMSO ([4]; 40 uM): 1.0111
